Blank lines part the entries; values can stand above or below the compound they belong to.
Assays:
[1] = test system: P. falciparum asexual blood stage parasites grown in 0.5% Albumax II; assay: Antiplasmodial activity with Albumax II media; type: cell-based; conditions: Plasmodium falciparum; RPMI with 0.5% Albumax II; mean ± SEM from 3 biological replicates
Protocol: (§1) Asexual blood stage parasites grown in the Chakrabarti laboratory were cultured based on a protocol by Trager and Jensen[57] with some modifications.[35] […] For comparison screening using serum vs Albumax II, culture media was changed from RPMI with 0.5% Albumax II to RPMI with 10% human serum and maintained for a minimum of 2 weeks prior to assay use.
(§2) Inhibitor EC50 determination in 3D7 and Dd2 was performed as discussed in,[35] based on established protocols.[60] Assays utilized asynchronous culture at 1% parasitemia, 1% hematocrit. Culture was incubated with compound dilutions for 72 h followed by freezing at −80°C to promote lysis, then thawing and incubation for 45 min–1 h with 1× SYBR Green I in a lysis buffer (20 mM Tris-HCL, 0.08% saponin, 5 mM EDTA, and 0.8% Triton X-100). Fluorescence was read 485 nm excitation, 530 nm emission on a Synergy Neo2 multimode reader (BioTek Winsooki, VT) and EC50 curves were generated using CDD Vault (https://www.collaborativedrug.com/).

[2] = concentrations up to 200 μM; propionate buffer pH 5.2, 16 h, 37°C; biological triplicate
Protocol: Assay plates were incubated at 37°C with gentle shaking for 16 h. A combination of 7.5% SDS in a 0.1 M bicarbonate buffer (pH 9.1) was then added to microtiter wells at a 1:3 ratio with gentle mixing. Plates were incubated for 10 min to allow crystals to settle before taking 50 μL of supernatant and adding it to 200 μL of 2.5% SDS in a 0.1 M bicarbonate buffer, pH 9.1. After mixing, absorbances were read at 405 nm on a Synergy Neo2 multimode reader (BioTek, Winsooki, VT). […] Images of the 200 μM treatment or control prior to SDS quenching were taken using a Nikon Eclipse TE200 inverted microscope.

[3] = test system: P. falciparum asexual blood stage parasites grown in 10% human serum; assay: Antiplasmodial activity with serum media; type: cell-based; conditions: Plasmodium falciparum, 336 h; RPMI with 10% human serum, maintained minimum 2 weeks; mean ± SEM from 3 biological replicates
Protocol: as §1, §2

[4] = test system: PfMDR1 cKD parasite line; assay: MDR1 compound susceptibility assay (Renilla luciferase); type: cell-based, P. falciparum
Source text: A conditional knockdown parasite line was generated for the P. falciparum multi-drug resistance 1 (MDR1; PF3D7_0523000) following previously described procedures.[84]^,[85] The native PfMDR1 locus was engineered using CRISPR/SpCas9 to afford transcriptional fusion of 10 tandem TetR-DOZI binding aptamers in the 3′UTR for anhydrotetracycline (aTc)-dependent regulation of PfMDR1 expression.
(§3) As a control cell line, a parasite line expressing an aptamer-regulatable fluorescent protein integrated in the cg6 locus[84] was assayed in parallel. Synchronous ring-stage parasites in the presence (0.5 μM) and absence of aTc were dispensed into 384-well polystyrene microplates (Corning®), and compounds added using the Janus® platform (PerkinElmer). DMSO- and DHA (0.5 μM) served as normalization controls for maximal and minimum signal. Luminescence was measured after 72 h and IC50 values were obtained from normalized dose-response curves using GraphPad Prism Version 8.

[5] = test system: wild-type YFP-expressing NF54; assay: MDR1 compound susceptibility assay, control line; type: cell-based, P. falciparum; conditions: Plasmodium falciparum, NF54, MDR1, 72 h, read-out: IC50 in the wild-type YFP-expressing NF54
Protocol: as §3

[6] = test system: P. falciparum Dd2; assay: Phenotypic screen: asexual blood stage EC50 determination (SYBR Green I); type: cell-based; conditions: values in Data S1 (not shown)
Protocol: Asexual blood stage parasites grown in the Chakrabarti laboratory were cultured based on a protocol by Trager and Jensen[57] with some modifications.[35] Culture was maintained at 4% hematocrit with human A+ whole blood obtained from the Florida OneBlood, in RPMI 1640 supplemented with 25 mM HEPES pH 7.4, 26 mM NaHCO3, 2% dextrose, 15 mg/L hypoxanthine, 25 mg/L gentamycin, and 0.5% Albumax II. Incubator conditions remained at 37°C and 5% CO2, 5% O2, 90% N2, or 95% air. For comparison screening using serum vs Albumax II, culture media was changed from RPMI with 0.5% Albumax II to RPMI with 10% human serum and maintained for a minimum of 2 weeks prior to assay use.
as §2

- EC50 [1]: 160 ± 10 nM
- EC50 [3]: 100 ± 20 nM
Compound: CCN(CC)CCCC(C)Nc1ccnc2cc(Cl)ccc12 (stereo not shown) [CQ, chloroquine, reference compound]
- inhibition of β-hematin crystallization [2]: clear, dose-dependent inhibition

Compound: OC(c1cc(C(F)(F)F)nc2c(C(F)(F)F)cccc12)C1CCCCN1 (stereo not shown) [mefloquine, reference compound]
- IC50 ([4]; Plasmodium falciparum, MDR1, 72 h, read-out: IC50 when the protein was knocked down): 5 nM
- shift in sensitivity upon PfMDR1 knockdown ([4]; with (0.5 μM) vs without aTc, 72 h, luminescence): ~12 fold
- IC50 [5]: 0.4 nM

Compound: Ac-Aib-L-Asn-L-Leu-L-Ile-Aib-L-Pro-D-Iva-L-Leu-Aib-L-Pro-L-Leu-NH2 [Harzianin HB I – amide, synthesized amide of an 11-AA peptaibol]
- activity of new isomers relative to their original counterparts [6]: decreased inhibition
